Test results as given in paper PMC8018465, “Antimicrobial activities of a small molecule compound II-6s against oral streptococci” (Journal of Oral Microbiology, 2021).

Columns and labels:
[1] = tested on: S. mutans/S. gordonii/S. sanguinis 3-species biofilms; test: 3-species biofilm imaging (EPS, dead/live, FISH) and quantitative PCR; format: cell-based
Experimental: To form 3-species biofilms, bacterial suspensions were mixed to obtain an inoculum consisting of S. mutans, S. gordonii, and S. sanguinis (1 × 10^5 CFU/ml for each strain, inoculum ratio = 1:1:1) in BHIS broth as described previously. The inoculum (250 μl) was added into the chemotaxis chamber (μ-slide 8well, 80,826; Ibidi) and incubated for 24 h. After the multispecies biofilms were formed, they were treated with different concentrations of II-6s, CHX and PBS for 5 days (5 min, three times per day).
For EPS staining, 2.5 μM Alexa Fluor 647-labeled dextran conjugate (Molecular Probes) was added to the culture medium from the beginning of the biofilm formation, and the bacteria were stained with 2.5 μM SYTO 9 (Molecular Probes, Invitrogen) for 15 min after biofilms formed. The biofilms were imaged with a DMIRE2 confocal laser scanning microscope (Leica, Wetzlar, Germany) equipped with a 60 × oil immersion lens.
For dead/live imaging, multispecies biofilms were stained with the Live/Dead BacLight Bacterial Viability Kit (Molecular Probes, Invitrogen), and the reagents were applied to the biofilms at final concentrations of 2.5 μM SYTO 9 and 2.5 μM propidium iodide for 15 min. Live/Dead staining is a measure of membrane damage since SYTO 9 penetrates intact cytoplasmic membranes, while propidium iodide is only able to penetrate damaged membranes. The dyed biofilms were imaged with a Leica DMIRE2 confocal laser scanning microscope as in EPS staining.
For fluorescent in situ hybridization imaging, biofilms were fixed in 4% paraformaldehyde overnight and investigated by species-specific probes (Table S1) as described previously [[30–32]]. In brief, prehybridization (15 min, 46°C) was performed in 250 μl hybridization buffer with 20% formamide in the absence of any oligonucleotide probes. The incubation time for the hybridization was almost 90 min at 46°C in the dark. After the incubation, biofilms were transferred into washing buffer preheated to 48°C and incubated for 15 min at this temperature. After staining, the biofilms were imaged with a Leica DMIRE2 confocal laser scanning microscope as in EPS staining.
Each biofilm was scanned at five randomly selected positions and the experiments were performed in triplicates on three independent occasions. All three-dimensional reconstructions of the biofilms were processed with Imaris, version 7.2.3 (Bitplane, Zürich, Switzerland), and the quantification of fluorescence levels was performed with ImageJ (with the plugin COMSTAT) (National Institutes of Health, Bethesda, MD).
Total DNA of biofilms was isolated and purified using a TIANamp Bacteria DNA kit (Tiangen, Beijing, China). The bacteria were lysed using enzymatic lysis buffer (20 mM Tris-HCl, pH 8.0, 2 mM sodium EDTA, and 1.2% Triton X-100) containing 25 mg/ml of lysozyme at 37°C for 1.5 h. The purity and concentration of DNA were determined by a NanoDrop 2000 spectrophotometer (Thermo Scientific, Waltham, MA, USA). The extracts were placed at −20°C before use. TaqMan real-time PCR (Life Technologies, Carlsbad, CA, USA) was applied to quantify the absolute number of S. mutans, S. gordonii and S. sanguinis as described by the manufacturer (TaKaRa, Dalian, China). The sequences of primers (Table S2) were in accordance with previous studies. The standard curves of these bacteria were plotted using cycle values of DNA, which stands for corresponding concentrations of bacteria from 1 × 10^8 CFU/ml to 1 × 10^4 CFU/ml (Figure S1). The number of each strain within 3-species biofilms was calculated based on standard curves. The experiment was conducted in triplicates and repeated three times.

S. gordonii biofilm = test: Biofilm susceptibility assay (crystal violet); format: cell-based, Streptococcus gordonii DL1; details: 24 h; for MBIC: S. gordonii biofilm formation, at least 90% inhibition; for MBRC: S. gordonii one-day biofilm, at least 90% reduction
Experimental: Streptococcus mutans UA159, Streptococcus gordonii DL1 and Streptococcus sanguinis ATCC10556 were obtained from the State Key Laboratory of Oral Diseases (Sichuan University, Chengdu, China). All strains were routinely cultured in brain heart infusion broth (BHI; Difco, Sparks, MD) under anaerobic conditions (5% CO2) at 37°C. For biofilm formation, bacteria were cultured in BHI broth supplied with 1% sucrose (designated BHIS). The effect of II-6s on S. mutans, S. gordonii, and S. sanguinis biofilm was examined by the microdilution method described previously. S. mutans, S. gordonii, and S. sanguinis (1 × 10^7 CFU/ml) respectively, were cultured in BHIS broth and II-6s (0.98 to 500 μg/ml) in 96-well microtiter plates for 24 h. A parallel study was also performed with BHIS as a negative control. After incubation, the culture supernatant and agent were removed, and each well was gently washed three times with phosphate-buffered saline (PBS), then fixed the adherent biofilm was fixed with methanol for 15 min, and stained with 0.1% (wt/vol) crystal violet (Sigma) for 5 min. The excess crystal violet stain in each well was rinsed away with PBS until the blank control wells were colorless. Finally, 200 μl of 95% ethanol was added to each well to dissolve the crystal violet attached to the biofilm. The plate was shaken at room temperature for 30 min, and the absorbance at 595 nm was recorded. To examine the effects of II-6s on mature biofilm, bacterial suspensions were inoculated into a 96-well microtiter plate containing BHIS and incubated at 37°C for 24 h. After biofilm developed, the supernatant from each well was decanted and planktonic cells were removed by washing with sterile PBS. Fresh BHI broth containing II-6s (0.98 to 500 μg/ml) was added to the one-day biofilm, and the plate was further incubated for 24 h. The control wells contained BHIS broth without II-6s. Similarly, the biofilm was fixed, stained, washed, and quantified as described above. […] The experiment was performed in triplicates and repeated at least three times.

[2] = 5 days, 5 min three times per day

SMILES	EPS/bacteria ratio of the biofilms [1, 2]	MBIC (S. gordonii biofilm) [µg/mL]	MBRC (S. gordonii biofilm) [µg/mL]	microbial composition within 3-species biofilms (FISH, quantitative PCR) [1, 2]	dead/live bacteria ratio of biofilm ([1]; II-6s 125 μg/ml, vs 0.2% of CHX)	dead/live bacteria ratio of biofilms ([1]; II-6s 31.25 to 125 μg/ml, vs non-treated control)	reduction of bacterial biomass and EPS production ([1]; II-6s 31.25 to 125 μg/ml, 5 days, 5 min three times per day)
[H]/N=C(\N/C(=N/[H])NCCCCCCNC(=N)NC(=N)Nc1ccc(Cl)cc1)Nc1ccc(Cl)cc1 [CHX, Chlorhexidine digluconate, reference compound]	neither II-6s nor CHX treatment altered the EPS/bacteria ratio	3.91	15.63	–	–	–	–
CC(C)(Cc1ccc2ccccc2c1)NC[C@H](O)CNc1cc(C(F)(F)F)cc(C(F)(F)F)c1 [II-6s, (S)-1-((3,5-bis(trifluoromethyl)phenyl)amino)-3-((2-methyl-1-(naphthalen-2-yl)propan-2-yl)amino)propan-2-ol]	neither II-6s nor CHX treatment altered the EPS/bacteria ratio	3.91	3.91	effectively reduced the total biomass of streptococci but did not specifically reduce the cariogenic S. mutans	even higher than that treated with 0.2% of CHX	significantly higher than that of the non-treated control	equivalent ability to reduce bacterial biomass and EPS production as compared to 0.2% of CHX
